Assay results as given in US20200270588A1, “GLUCOSYL TRANSFERASE POLYPEPTIDES AND METHODS OF USE” (Syngenta Participations AG, priority 2017, published 2020).
“And” between values parts separate entries of the source, which are not always exact repeats. Equal entries are not always repeated.

Key:
Format in all cases: biochemical
[1] = target: T1, SEQ ID 33, mutant bx-type glucosyl transferase (Zea mays, UniProt Q8W2B7, A285K); assay: LC/MS glucosyl transferase assay (glucoside peak area), purified enzyme; conditions: about 60 min, ~15 pmol enzyme, relative quantification only
T1 construct: 33; 1.70E+05; 3.59E+07; 9.27E+06; His tag; made in house
Method: (§1) In an alternative method for assaying the various enzymes, the test glucosyl transferase enzyme is reacted with substrates exactly as above except that the assay is stopped by adding an equal volume of acetonitrile. Alternatively 50 or 100 μl samples from assay reactions are added to 500 μl ethyl acetate to stop the reaction. In this case samples are then vortexed and 400 μl of the ethyl acetate partition removed, dried down, and resuspended in 100 μl 80:20 acetonitrile/water. The formation of product gluco side and/or disappearance of substrate test herbicide is then monitored directly by LC/MS. Samples are analyzed by LC-MS using an Agilent 1290 liquid chromatography system and Thermo Q-Exactive mass spectrometer. The chromatography is achieved on a Waters Acquity C18 BEH (50×2.1 mm) 1.7 μm particle size column, using a 6 minute gradient run of Water (0.2% formic acid) and Acetonitrile. The Q-Exactive is operated in positive ionisation electrospray mode, using Full scan-AIF mode, at 35,000 resolution, between 100-800 m/z. All analytes are identified from the full scan data to within at least 5 ppm accuracy of their predicted pseudo-molecular ion [M+H]^+ m/z value. In order to obtain quantitative data standard curves are run using herbicides and herbicide glucosides synthesized as standards. Where these synthetic glucosides were not available the LC/MS assay could only be used to provide relative data.
(§2) DNA sequences, optimized for E. coli codon usage, were cloned, expressed and the various proteins purified and assayed as described in the foregoing examples. Using the UDP assay (as described in examples 1, 3 and 6) the data obtained from the Zea mays bx8 w/t protein and its variants was noisy due to relatively high background rates in DMSO reagent blanks. The values reported in the table 15 were thus monitored by LC/MS as described in example 1.

[2] = target: T2, SEQ ID 31, mutant bx-type glucosyl transferase (Zea mays, UniProt Q8W2B7, S121V); assay: as above; conditions: about 60 min, ~15 pmol enzyme, relative quantification only
T2 construct: 31; nd; 8.84E+06; 5.57E+06; His tag; made in house
Method: as §1, §2

[3] = target: T3, Zea mays bx8 glucosyl transferase (SEQ ID 2) (Zea mays, UniProt Q8W2B7); assay: as above; conditions: for integrated peak area of beta-glucoside product: LC/MS, about 60 min, ~15 pmol enzyme, relative quantification only
T3 construct: His tag; made in house
T3 sequence (Q8W2B7 1-459): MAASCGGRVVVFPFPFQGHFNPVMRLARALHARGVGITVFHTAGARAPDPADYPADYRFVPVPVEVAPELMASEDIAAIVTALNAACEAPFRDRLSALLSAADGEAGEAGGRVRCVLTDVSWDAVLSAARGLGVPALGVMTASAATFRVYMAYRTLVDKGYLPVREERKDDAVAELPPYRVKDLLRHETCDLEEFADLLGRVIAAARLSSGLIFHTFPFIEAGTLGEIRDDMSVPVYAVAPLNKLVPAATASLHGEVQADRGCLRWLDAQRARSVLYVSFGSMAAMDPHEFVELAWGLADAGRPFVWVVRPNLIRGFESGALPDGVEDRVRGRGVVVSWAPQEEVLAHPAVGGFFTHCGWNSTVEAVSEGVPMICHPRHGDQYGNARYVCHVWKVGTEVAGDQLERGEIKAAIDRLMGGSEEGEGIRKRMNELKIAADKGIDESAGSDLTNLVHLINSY
Method: as §1, §2
DNA sequences, optimized for E. coli codon usage, are cloned, expressed and the various proteins purified and assayed as described in the foregoing examples. As in Example 4, a DNA sequence is designed and synthesized to express the N-terminally his tagged Zea mays bx8 (SEQ ID No: 2). However in this case the DNA sequence is modified to further include a peptide insertion “GIGVD”=SEQ ID No: 102 in place of D442 of SEQ ID No: 2 and as indicated in Table 2. The resultant modified sequence is cloned into the E. coli expression plasmid pET24a using 5′ NdeI and 3′ XhoI restriction sites, expressed, purified and assayed. […] In LC/MS assays run for 30 min and similar to those described in example 7 the integrated peak areas for glucoside product from herbicide V from the w/t Zea mays bx8 SEQ ID NO:2 was 1.5E6 units whereas the corresponding number for the equivalent protein containing the GIGVD peptide insert was 2.5E6 units. […]

[4] = target: T4, SEQ ID NO 20, mutant of Zea mays bx9 glucosyl transferase (Zea mays, UniProt B4G072, A281K/A334K/F21Y/L194V/M279F/S117V); conditions: lower block, concentration printed only in upper block: V 0.300, VII 0.210; IV, VIII, XI, XXI, XX, XVIII, XVI, XV, XIV 0.200; others 1.000 mM
T4 construct: His tag (C); made in house
T4 sequence (B4G072 whole entry F21Y/S117V/L194V/M279F/A281K/A334K): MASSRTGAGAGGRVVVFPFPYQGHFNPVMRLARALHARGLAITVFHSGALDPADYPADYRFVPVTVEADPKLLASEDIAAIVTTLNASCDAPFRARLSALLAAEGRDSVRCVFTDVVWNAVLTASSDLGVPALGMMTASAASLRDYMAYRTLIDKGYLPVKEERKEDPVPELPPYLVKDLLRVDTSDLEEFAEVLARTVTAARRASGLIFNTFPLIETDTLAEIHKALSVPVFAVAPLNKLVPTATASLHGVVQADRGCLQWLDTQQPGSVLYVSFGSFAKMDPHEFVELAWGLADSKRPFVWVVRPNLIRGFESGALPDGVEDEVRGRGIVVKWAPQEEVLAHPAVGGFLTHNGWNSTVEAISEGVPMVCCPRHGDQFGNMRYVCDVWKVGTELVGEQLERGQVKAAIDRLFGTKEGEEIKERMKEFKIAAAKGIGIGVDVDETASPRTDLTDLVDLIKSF

T2 sequence (Q8W2B7 whole entry S121V): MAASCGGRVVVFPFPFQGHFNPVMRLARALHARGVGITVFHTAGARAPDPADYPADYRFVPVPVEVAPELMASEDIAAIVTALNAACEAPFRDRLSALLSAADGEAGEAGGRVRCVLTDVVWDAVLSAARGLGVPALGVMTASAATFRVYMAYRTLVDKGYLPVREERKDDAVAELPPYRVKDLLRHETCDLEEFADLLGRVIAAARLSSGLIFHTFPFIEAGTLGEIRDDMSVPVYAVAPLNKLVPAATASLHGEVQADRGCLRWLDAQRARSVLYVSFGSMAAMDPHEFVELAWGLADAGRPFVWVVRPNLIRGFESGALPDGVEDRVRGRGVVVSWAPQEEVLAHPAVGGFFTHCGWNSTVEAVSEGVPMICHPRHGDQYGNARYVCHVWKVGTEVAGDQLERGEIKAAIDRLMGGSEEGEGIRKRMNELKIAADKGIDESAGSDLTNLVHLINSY
T1 sequence (Q8W2B7 whole entry A285K): as the sequence (Q8W2B7 whole entry S121V) above, with V121S, A285K counted along it

| Structure (SMILES) | integrated peak area of beta-glucoside product [1] | integrated peak area of beta-glucoside product [2] | integrated peak area of beta-glucoside product [3] | Activity [4] [pmol/sec/pmol enzyme] | integrated peak area of glucoside product ([3]; LC/MS assay run for 30 min, N-terminally his tagged) [units] |
| --- | --- | --- | --- | --- | --- |
| CON1C(=O)N(c2cc(C(F)(F)F)ccn2)C(O)[C@@H]1C (some centres unmarked) [Compound VI] | 3.59E+07 and 3.45E+07 | 8.84E+06 and 1.04E+07 | 8.08E+06 and 7.57E+06 and 8.81E+06 and 7.78E+06 | – | – |
| Cc1cnc(N2C(=O)N(C)CC2O)cc1C(F)(F)F (centres unmarked) [XVIII] | – | – | – | 1.141 | – |
| CN1CC(O)N(c2cc(C(F)(F)F)c(Cl)cn2)C1=O (centres unmarked) [XI] | – | – | 1.90E+04 and 2.36E+04 and 1.84E+04 | 1.046 | – |
| CN1CC(O)N(c2cc(C(F)(F)F)ccn2)C1=O (centres unmarked) [Compound V] | 9.27E+06 and 9.76E+06 | 5.57E+06 and 5.59E+06 | 2.52E+06 and 2.97E+06 | 1.889 | 1.5E6 |
